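Five concentrations, 48 hours, 96-well plates. The concentration for 50% growth inhibition is given as GI50. TGI marks complete inhibition of growth.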
Key:
Assay in all cases: inhibition of tumour cell growth, NCI panel, 48 h
HCC-2998 colon = system: HCC-2998 colon
DU-145 prostate = system: DU-145 prostate
SK-MEL-5 melanoma = system: SK-MEL-5 melanoma
A549 NSCLC = system: A549 NSCLC
HL-60(TB) leukemia = system: HL-60(TB) leukemia
LOX IMVI melanoma = system: LOX IMVI melanoma
TK-10 renal = system: TK-10 renal
RXF 393 renal = system: RXF 393 renal
SK-OV-3 ovarian = system: SK-OV-3 ovarian
SK-MEL-2 melanoma = system: SK-MEL-2 melanoma
MDA-MB-231 breast = system: MDA-MB-231 breast
OVCAR-4 ovarian = system: OVCAR-4 ovarian
SR leukemia = system: SR leukemia
HT29 colon = system: HT29 colon
SK-MEL-28 melanoma = system: SK-MEL-28 melanoma
MCF7 breast = system: MCF7 breast
SF-539 CNS = system: SF-539 CNS
SN12C renal = system: SN12C renal
CCRF-CEM leukemia = system: CCRF-CEM leukemia
HCT-116 colon = system: HCT-116 colon
SW-620 colon = system: SW-620 colon
NCI-H23 lung = system: NCI-H23 lung
T-47D breast = system: T-47D breast
HS 578T breast = system: HS 578T breast
M14 melanoma = system: M14 melanoma
PC-3 prostate = system: PC-3 prostate
BT-549 breast = system: BT-549 breast
U251 CNS = system: U251 CNS
SNB-75 CNS = system: SNB-75 CNS
RPMI-8226 leukemia = system: RPMI-8226 leukemia
HOP-62 NSCLC = system: HOP-62 NSCLC
MALME-3M melanoma = system: MALME-3M melanoma
EKVX NSCLC = system: EKVX NSCLC
MDA-MB-435 = system: MDA-MB-435
SF-295 CNS = system: SF-295 CNS
A498 renal = system: A498 renal
SF-268 CNS = system: SF-268 CNS
NCI/ADR-RES ovarian = system: NCI/ADR-RES ovarian
UACC-257 melanoma = system: UACC-257 melanoma
CAKI-1 renal = system: CAKI-1 renal
786-0 renal = system: 786-0 renal
ACHN renal = system: ACHN renal
OVCAR-3 ovarian = system: OVCAR-3 ovarian
NCI-H522 lung = system: NCI-H522 lung
OVCAR-8 ovarian = system: OVCAR-8 ovarian
UACC-62 melanoma = system: UACC-62 melanoma
HCT-15 colon = system: HCT-15 colon
IGROV1 ovarian = system: IGROV1 ovarian
KM12 colon = system: KM12 colon
SNB-19 CNS = system: SNB-19 CNS
MOLT-4 leukemia = system: MOLT-4 leukemia
NCI-H226 lung = system: NCI-H226 lung
OVCAR-5 ovarian = system: OVCAR-5 ovarian
NCI-H460 lung = system: NCI-H460 lung
COLO 205 colon = system: COLO 205 colon
UO-31 renal = system: UO-31 renal
HOP-92 NSCLC = system: HOP-92 NSCLC
K-562 leukemia = system: K-562 leukemia

## CC(C)(C)Nc1nc2c(OCCc3ccccc3)cccn2c1-c1ccc(Cl)cc1
HCC-2998 colon
  GI50: 28.1 µM
  TGI: > 100 µM
DU-145 prostate
  GI50: 25 µM
  TGI: > 100 µM
SK-MEL-5 melanoma
  GI50: 17 µM
  TGI: 32.6 µM
A549 NSCLC
  GI50: 24 µM
  TGI: > 100 µM
HL-60(TB) leukemia
  GI50: 25.7 µM
  TGI: 74.5 µM
LOX IMVI melanoma
  GI50: 17.1 µM
  TGI: 33.3 µM
TK-10 renal
  GI50: 25.3 µM
  TGI: 79.5 µM
RXF 393 renal
  GI50: 13.4 µM
  TGI: 35.6 µM
SK-OV-3 ovarian
  GI50: 24.5 µM
  TGI: 75.7 µM
SK-MEL-2 melanoma
  GI50: 12.8 µM
  TGI: 28.8 µM
MDA-MB-231 breast
  GI50: 16.7 µM
  TGI: 35 µM
OVCAR-4 ovarian
  GI50: 26.7 µM
  TGI: > 100 µM
SR leukemia
  GI50: 19.3 µM
  TGI: > 100 µM
HT29 colon
  GI50: 19.7 µM
  TGI: 53.6 µM
SK-MEL-28 melanoma
  GI50: 27.6 µM
  TGI: > 100 µM
MCF7 breast
  GI50: 21.1 µM
  TGI: 93.5 µM
SF-539 CNS
  GI50: 18.5 µM
  TGI: 37.8 µM
SN12C renal
  GI50: 22.4 µM
  TGI: > 100 µM
CCRF-CEM leukemia
  GI50: 29.9 µM
  TGI: 97.2 µM
HCT-116 colon
  GI50: 17.6 µM
  TGI: 43.4 µM
SW-620 colon
  GI50: 28.1 µM
  TGI: > 100 µM
NCI-H23 lung
  GI50: 25.3 µM
  TGI: 83.4 µM
T-47D breast
  GI50: 17.7 µM
  TGI: > 100 µM
HS 578T breast
  GI50: 20.8 µM
  TGI: 77.5 µM
M14 melanoma
  GI50: 26.3 µM
  TGI: 71.2 µM
PC-3 prostate
  GI50: 25.3 µM
  TGI: > 100 µM
BT-549 breast
  GI50: 19.6 µM
  TGI: 49.5 µM
U251 CNS
  GI50: 18.7 µM
  TGI: 48.7 µM
SNB-75 CNS
  GI50: 17.6 µM
  TGI: > 100 µM
RPMI-8226 leukemia
  GI50: 20.8 µM
  TGI: 60.4 µM
HOP-62 NSCLC
  GI50: 20.2 µM
  TGI: 52.8 µM
MALME-3M melanoma
  GI50: 23.9 µM
  TGI: 59 µM
EKVX NSCLC
  GI50: 22.5 µM
  TGI: 86 µM
MDA-MB-435
  GI50: 30.3 µM
  TGI: > 100 µM
SF-295 CNS
  GI50: 24.8 µM
  TGI: 61.8 µM
A498 renal
  GI50: 15.2 µM
  TGI: 62.1 µM
SF-268 CNS
  GI50: 27.1 µM
  TGI: > 100 µM
NCI/ADR-RES ovarian
  GI50: 21.6 µM
  TGI: 82.4 µM
UACC-257 melanoma
  GI50: 26.4 µM
  TGI: 89.9 µM
CAKI-1 renal
  GI50: 25.1 µM
  TGI: > 100 µM
786-0 renal
  GI50: 19.4 µM
  TGI: 45.2 µM
ACHN renal
  GI50: 27.3 µM
  TGI: > 100 µM
OVCAR-3 ovarian
  GI50: 16.4 µM
  TGI: 64.8 µM
NCI-H522 lung
  GI50: 16.1 µM
  TGI: 54.3 µM
OVCAR-8 ovarian
  GI50: 27.1 µM
  TGI: > 100 µM
UACC-62 melanoma
  GI50: 16 µM
  TGI: 38.3 µM
HCT-15 colon
  GI50: 17.3 µM
  TGI: 43.1 µM
IGROV1 ovarian
  GI50: 25.7 µM
  TGI: > 100 µM
KM12 colon
  GI50: 22.2 µM
  TGI: 69.9 µM
SNB-19 CNS
  GI50: 32.3 µM
  TGI: > 100 µM
MOLT-4 leukemia
  GI50: 18.3 µM
  TGI: 95.5 µM
NCI-H226 lung
  GI50: 18.1 µM
  TGI: 60 µM
OVCAR-5 ovarian
  GI50: 23.7 µM
  TGI: > 100 µM
NCI-H460 lung
  GI50: 18.9 µM
  TGI: 50.5 µM
COLO 205 colon
  GI50: 16.4 µM
  TGI: 34.7 µM
UO-31 renal
  GI50: 11.3 µM
  TGI: 39.7 µM
HOP-92 NSCLC
  GI50: 17.4 µM
  TGI: 67.2 µM
K-562 leukemia
  GI50: 26.4 µM
  TGI: > 100 µM

Reference: PubChem BioAssay (NCI)
